The nature of assay [1]: Spectrophotometric titration. Format: binding. The source says: (§1) Changes in the optical absorption characteristics of Nd^3+ were monitored using a Cary 6000i UV/Vis–NIR Spectrometer (Agilent) using 1 cm semimicro quartz cuvettes (Starna) in double-beam mode, where the ^4I9/2 → ^4G5/2, ^2G7/2 transitions[34] were monitored between 560 and 605 nm with a 0.075 nm interval and 1.0 nm spectral bandwidth. Changes in the optical absorption characteristics of ^243Am^3+ and ^248Cm^3+ were monitored using a Flame-S-VIS–NIR-ES spectrometer coupled to a DH-2000-BAL dual-mode light source (Ocean Optics) with a single 1 cm semimicro quartz cuvette (Starna). The light source and spectrometer were optically coupled to the CUV sample (Ocean Optics) holder using 2 m fiberoptics (200 μm) and the parameters for acquisition were 0.369 nm interval and 1000 scans averaged with an integration time/scan 1.08 ms (total acquisition time ~ 1 s). The complexation of Am^3+ with the ligands was monitored in the 495–525 nm spectral region, looking at the ^7F0′ → ^5L6′ transition[23],[35]. For Cm^3+, ligand complexation was monitored in the 365–410 nm spectral region, looking at the ^8S7/2 → ^2Ji (i = {15}, {13,9}, {11,17}) manifold transitions[24],[25],[36]. Changes in aqueous p[H^+] were monitored throughout each titration step using a Gran-calibrated Orion Ross Semi-micro glass electrode. Baseline correction was applied to all datasets and was typically a simple linear subtraction. However, in the case of the ^248Cm/H4pypa-peg spectra, the tail end of the ligand absorption overlapped the hypersensitive Cm peaks. In this case the background correction was applied using a 5th-order empirical polynomial. Finally, the spectroscopic data was analyzed using the HypSpec software package[33],[37]. Full details of the titrand and titrant solutions for each titration are included in the Supplemental Information.
The coordination of Nd^3+ by H4octapa and H4pypa-peg was also studied using spectroscopic methods. Figures 5A, B show the collected spectrophotometric signatures for H4octapa and H4pypa-peg, respectively.4 M^3++L^4-⇆ML^-β101=ML^-/[M^3+]L^4- 5 M^3++H^++L^4-⇆MHLaqβ111=MHLaq/[M^3+L^4-H^+]
Optical absorption features of ^4I9/2 → ^4G5/2, ^2G7/2 transitions for Nd^3+ are perturbed due to the introduction of increasing quantities of complexants, resulting in characteristic red-shifted changes. In Fig. 5A a broad absorption band with λmax = 577 nm is distinctly different to the optical absorption of free Nd^3+ metal in Fig. 5B. The differences can be attributed to the nitrate complexation of Nd^3+ as the spectrophotometric titration with H4octapa was performed in 2.0 M (Na^+/H^+)NO3. […] The HypSpec interpretation of the Nd/pypa-peg titration points to the presence of three absorbing species: Nd^3+, NdHL(aq), and NdL^−. The conditional stability constants obtained spectroscopically are listed in Table 3, showing good agreement with the stability constants determined using potentiometry. The complex stability constants for structurally similar APC ligands found in the literature are also presented (H4pypa[18] and H4py4pa[57]).
2. Spectrophotometric titration parameters
Nd3+: The titrand solution consisting of 1.980 mL of 7.57 mM Nd(ClO4)3 at p[H+] = 1.61 was blended with 1.965 mL of titrant solution containing 7.62 mM Nd3+, 18.57 mM H4octapa, […]
Am3+: The titrand solution consisting of 0.842 mL of 0.810 mM Am(ClO4)3 at p[H+] =1.66 was blended with 0.811 mL of titrant solution containing 0.815 mM Am3+, 8.95 mM H4octapa, at p[H+] ≈ 5.0 – 6.0.
Nd3+: The titrand solution consisting of 0.801 mL of 9.82 mM Nd(ClO4)3 at p[H+] = 1.61 was blended with 1.176 mL of titrant solution containing 9.91 mM Nd3+ and 24.58 mM H4pypa-peg in with p[H+] ≈ 3.0 – 4.0.
Am3+: The titrand solution consisting of 0.806 mL of 0.791 mM Am(ClO4)3 at p[H+] = 1.41 was blended with 0.787 mL of titrant solution containing 0.801 mM Am3+ and 15.09 mM H4pypa-peg at p[H+] ≈ 5 – 6.
Cm3+: The titrand solution consist ing of 0.809 mL of 1.00 mM Cm(ClO4)3 at p[H+] = 1.34 was […]

Assay [2] can be described thus: Spectrophotometric titration. Format: binding.
Text: as §1
To further validate the competitive solvent extraction methodology the complexation of Am^3+ with H4octapa and Cm^3+ with H4pypa-peg was studied spectrophotometrically. These titrations monitored the ligand-induced changes on the optical absorption spectra of free Am^3+ at λmax = 503.0 nm, (Fig. 8A) and Cm^3+ at λmax = 375.0, 380.6, 396.5 nm, (Fig. 8C). The presence of both ligands induced new red-shifted absorption signatures in each monitored titration. […] Excellent agreement between the solvent extraction and spectrophotometry was attained for the β101 values for the formation of [Am(octapa)]^− albeit the uncertainty associated with a constant measured using competitive liquid–liquid distribution is rather large and points out the shortcomings of this method. A variance between two analytical methods is larger for [Cm(pypa-peg)]^− possibly due to free ligand absorption interferences.
2. Spectrophotometric titration parameters […]
H4octapa, at p[H+] ≈ 5.0 – 6.0. […]
Am3+: The titrand solution consisting of 0.806 mL of 0.791 mM Am(ClO4)3 at p[H+] = 1.41 was
blended with 0.787 mL of titrant solution containing 0.801 mM Am3+ and 15.09 mM
H4pypa-peg at p[H+] ≈ 5 – 6. […]
This is another data set of the same source.

Setting [3] is: spectrophotometrically determined in 2.0 M (Na+/H+)ClO4, 20 °C.
[4] abbreviates: I = 2.0 M (Na+/H+)ClO4 at 20.0 °C (spectrophotometric titration).

For `O=C(O)CN(CCN(CC(=O)O)Cc1cccc(C(=O)O)n1)Cc1cccc(C(=O)O)n1` [H4octapa, 6,6′-((ethane-1,2-diylbis–((carboxymethyl)azanediyl))bis–(methylene))dipicolinic acid], the “logβ101 (ML), Nd” value in assay [1] (spectrophotometrically determined in 2.0 M (Na+/H+)NO3) is recorded as 18.15 (1). The “logβ101 (ML), Am3+” value in assay [2] (spectrophotometrically measured, I = 2.0 M (Na+/H+)NO3, T = 25 ± 1 °C, ±3σ) is on record as 19.28 (1).
As to `O=C(O)CN(Cc1cc(-c2cn(CCOCCOCCO)nn2)cc(CN(CC(=O)O)Cc2cccc(C(=O)O)n2)n1)Cc1cccc(C(=O)O)n1` [H4pypa-peg, 6,6'-((((4-(1-(2-(2-(2-hydroxyethoxy)ethoxy)ethyl)-1H-1,2,3-triazol-4-yl)pyridine-2,6-diyl)bis–(methylene))bis–((carboxymethyl)azanediyl))bis–(methylene)) dipicolinic acid], in assay [1] (spectrophotometrically determined in 2.0 M (Na+/H+)ClO4), the “logK111, Nd” value was 1.89 (6). In addition, in assay [1] (setting [3]), the “logβ101 (ML), Nd” value is 18.15 (6) and the “logβ111 (MHL), Nd” value is on record as 20.04 (4).
As for `O=C(O)CN(CCN(CC(=O)O)CC(=O)O)CCN(CC(=O)O)CC(=O)O` [H5dtpa, diethylenetriamine-N,N,N',N'',N''-pentaacetic acid], in assay [1] (setting [3]), the “logβ101 (ML), Nd” value is on record as 20.23(2) and the “logβ111 (MHL), Nd” value is given as 21.59(2). Besides, in assay [2] (setting [4]), the “logβ101 (ML), Am3+” value is 21.45(1) and the “logβ111 (MHL), Am3+” value is reported as 22.62(2).
With `O=C(O)CN(CCN(CCN(CC(=O)O)CC(=O)O)CC(=O)O)CCN(CC(=O)O)CC(=O)O` [H6ttha, triethylenetetraamine-N,N,N',N'',N''',N'''-hexaacetic acid], in assay [1] (setting [3]), the “logβ101 (ML), Nd” value is reported as 21.90(7) and the “logβ111 (MHL), Nd” value is given as 25.56(7). Further, in assay [2] (setting [4]), the “logβ101 (ML), Am3+” value is listed as 23.25(3); the “logβ111 (MHL), Am3+” value is 27.02(3); the “logβ121 (MH2L), Am3+” value is listed as 28.84(2).

The values above are taken from article PMC10587169, “Tuning aminopolycarboxylate chelators for efficient complexation of trivalent actinides” (Scientific Reports, 2023).
